{
  "source": "patent US20080118494A1",
  "about": "“Compositions For Detection Of Latent Hiv Reactivation And Methods Of Using The Same” (priority 2004, published 2008)",
  "tested_on": "latent HIV-1 infection in LWI6 cells",
  "assay": "Reactivation of latent HIV-1 in LWI6 reporter cells, EGFP plate based fluorometry (384-well)",
  "type": "cell-based",
  "conditions": "LWI6, 1×10^5 cells/well, 384-well plate",
  "excerpt": "Latently HIV-1 infected reporter cell lines with an increased dynamic range of the EGFP signal. An indicator cell line with HTS feasibility was generated through stable transfection with a reporter plasmid in which the HIV-1 promoter (long terminal repeat; LTR) controls the expression of EGFP. Nucleic acid sequences for HIV-1 LTR (SEQ ID NO:1) can be accessed via GenBank Accession No. X03189. All of the information, including any nucleic acid and amino acid sequences provided for HIV-1 LTR under GenBank Accession X03189 is hereby incorporated in its entirety by this reference. […] In the resulting latently infected T cell clones (LWI4, LWI6, LWI7, LRJ3, LRJ5, LRJ12), maximal EGFP expression was increased by a factor of 10 in comparison to other reporter cell lines incorporating GFP into the HIV-1 genome when analyzed by flow cytometry (FIG. 1).\nAssay optimization in […] format plates. […] The need to work with low quantities of material and thus low numbers of reporter cells that are treated has to be balanced with the requirements to obtain a sufficiently high signal to background ratio to avoid false negative hits during the screen. […] Although EGFP fluorescence continued to increase up to the highest density of cells, wells with 1×10^5 cells gave a 40-fold increase of EGFP fluorescence intensity over background after 24 h, and an 80-fold increase after 48 h. […]",
  "data": [
    {"substance": "TNF-α", "values": [
      {"measurement": "increase of EGFP fluorescence intensity over background", "setting": "after 24 h", "value": 40, "unit": "fold"},
      {"measurement": "increase of EGFP fluorescence intensity over background", "setting": "after 48 h", "value": 80, "unit": "fold"}
    ]}
  ]
}
